Test systems include CAKI-1 renal; UACC-62 melanoma; OVCAR-5 ovarian; OVCAR-8 ovarian; UO-31 renal; IGROV1 ovarian; EKVX NSCLC; OVCAR-3 ovarian; NCI-H522 lung.
Experiment in all cases: NCI-60 cell line screen, 48 h

SMILES strings stand for the structures.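 Following 48 hours of exposure in 96-well plates, responses at five concentrations were used to interpolate endpoints linearly. The concentration for 50% growth inhibition is given as GI50. At the TGI there is no net growth.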

For `O=c1nc2occc2cn1C1CC(O)C(CO)O1` (centres undefined), the TGI with CAKI-1 renal, in the experiment with UACC-62 melanoma, with OVCAR-5 ovarian, in the experiment on OVCAR-8 ovarian, in the experiment on UO-31 renal and with IGROV1 ovarian was over 100 µM throughout. The TGI in the experiment on EKVX NSCLC and in the experiment with OVCAR-3 ovarian was over 100 µM throughout.

Regarding `CC(=O)O.CC(=O)O.CC(=O)O.CC(=O)O.CC(=O)O.CC(=O)O.O.[Ti].[Ti]`, the GI50 in the experiment on NCI-H522 lung, with CAKI-1 renal, in the experiment with UACC-62 melanoma, with OVCAR-5 ovarian, in the experiment with OVCAR-8 ovarian and in the experiment on UO-31 renal was over 100 µM each time. Also, the GI50 with IGROV1 ovarian, in the experiment with EKVX NSCLC and with OVCAR-3 ovarian was over 100 µM in each case. The TGI with NCI-H522 lung, with CAKI-1 renal, in the experiment on UACC-62 melanoma, in the experiment on OVCAR-5 ovarian, with OVCAR-8 ovarian and in the experiment with UO-31 renal was over 100 µM throughout. The TGI with IGROV1 ovarian, with EKVX NSCLC and with OVCAR-3 ovarian was over 100 µM in each case.

In the case of `O=[n+]1c2c(n([O-])c3ccccc31)CCCCCCCCCC2`, the TGI with NCI-H522 lung, in the experiment on CAKI-1 renal, in the experiment with UACC-62 melanoma, in the experiment with UO-31 renal, in the experiment with IGROV1 ovarian and with EKVX NSCLC was over 100 µM each time. This compound also yielded a TGI with OVCAR-3 ovarian of over 100 µM.

As to `Cc1ccccc1N1C(=O)/C(=C/c2ccc(N(CCC#N)CCC#N)cc2)N=C1c1cc([N+](=O)[O-])ccc1Cl`, the TGI in the experiment with NCI-H522 lung, in the experiment on CAKI-1 renal, in the experiment on UACC-62 melanoma, in the experiment with OVCAR-5 ovarian, in the experiment with UO-31 renal and with IGROV1 ovarian was over 100 µM throughout. In the experiment with OVCAR-3 ovarian, this compound yielded a TGI of over 100 µM.

Consider `C=C(C=O)[C@@H]1C2OC(=O)C(=C)[C@@H]2CC(O)[C@@]1(C)CC` (some centres undefined), for which the TGI came out at 4.52 µM in the experiment with NCI-H522 lung; 24 µM in the experiment on CAKI-1 renal; 13.9 µM in the experiment with UACC-62 melanoma; 32 µM with OVCAR-5 ovarian; 20.4 µM with OVCAR-8 ovarian; 45.8 µM in the experiment on UO-31 renal. Moreover, the TGI in the experiment with IGROV1 ovarian was over 28.7 µM; with EKVX NSCLC it was 51.1 µM; in the experiment with OVCAR-3 ovarian, 21.3 µM.

Take `COc1ccc(OC)c(NC(=O)C(=O)NNC(=O)c2sc(NNC(C)=O)nc2C)c1`: the TGI was 44.3 µM in the experiment on NCI-H522 lung; over 100 µM in the experiment with CAKI-1 renal; 81.5 µM in the experiment on UACC-62 melanoma; over 100 µM in the experiment on OVCAR-5 ovarian; over 100 µM in the experiment with OVCAR-8 ovarian; over 100 µM in the experiment with UO-31 renal. The TGI in the experiment on IGROV1 ovarian was over 100 µM; in the experiment with EKVX NSCLC it was over 100 µM; in the experiment with OVCAR-3 ovarian, 66.3 µM.

As to `CSc1nc2c(nc(C)c(=O)n2C2OCC(OC(C)=O)C(OC(C)=O)C2OC(C)=O)c(=O)[nH]1` (centres undefined), the TGI in the experiment with NCI-H522 lung, with CAKI-1 renal, in the experiment on UACC-62 melanoma, in the experiment on OVCAR-5 ovarian, in the experiment on OVCAR-8 ovarian and in the experiment on UO-31 renal was over 100 µM in each case. For the same compound, the TGI in the experiment with IGROV1 ovarian, in the experiment with EKVX NSCLC and with OVCAR-3 ovarian was over 100 µM throughout.

On to `O=C1CCCC/C(=C/c2ccccc2)N1`, for which the TGI in the experiment on NCI-H522 lung, with CAKI-1 renal, in the experiment with UACC-62 melanoma, with OVCAR-5 ovarian, with OVCAR-8 ovarian and in the experiment with UO-31 renal was over 100 µM throughout. Moreover, the TGI in the experiment on IGROV1 ovarian, with EKVX NSCLC and with OVCAR-3 ovarian was over 100 µM in each case.

Take `O=C(Nc1nc2ncn(CCI)c2c(=O)[nH]1)c1ccccc1`: the TGI in the experiment on NCI-H522 lung was over 100 µM; in the experiment with CAKI-1 renal, over 100 µM; in the experiment on UACC-62 melanoma it was over 100 µM; with OVCAR-5 ovarian it was over 100 µM; in the experiment with OVCAR-8 ovarian, over 62.2 µM; with UO-31 renal it was over 100 µM. Besides, the TGI with IGROV1 ovarian, in the experiment with EKVX NSCLC and with OVCAR-3 ovarian was over 100 µM throughout.

`Cc1ccc(SC(C)/C=C/NNC2=NC(c3ccccc3)C(c3ccccc3)=NN2)cc1` (centres undefined): the TGI is 88.9 µM in the experiment with NCI-H522 lung; 46.6 µM with CAKI-1 renal; 48.7 µM in the experiment on UACC-62 melanoma; 89.1 µM in the experiment with OVCAR-5 ovarian; over 100 µM in the experiment on OVCAR-8 ovarian; 57.5 µM in the experiment on UO-31 renal. In addition, the TGI in the experiment on IGROV1 ovarian, with EKVX NSCLC and with OVCAR-3 ovarian was over 100 µM each time.

With `CC(O)C(N=Cc1ccccc1[O-])C(=O)[O-].CC(O)C(N=Cc1ccccc1[O-])C(=O)[O-].[Co+2]` (centres undefined), the GI50 in the experiment with NCI-H522 lung was over 100 µM; in the experiment with UACC-62 melanoma, 65.8 µM; in the experiment on OVCAR-5 ovarian it was over 100 µM; in the experiment with OVCAR-8 ovarian, over 100 µM; in the experiment on UO-31 renal, 76.5 µM; with IGROV1 ovarian, over 100 µM. The GI50 with EKVX NSCLC and in the experiment with OVCAR-3 ovarian was over 100 µM in each case. Further, the TGI in the experiment with NCI-H522 lung, with UACC-62 melanoma, with OVCAR-5 ovarian, in the experiment on OVCAR-8 ovarian, in the experiment on UO-31 renal and in the experiment with IGROV1 ovarian was over 100 µM throughout. Further, the TGI in the experiment on EKVX NSCLC and in the experiment with OVCAR-3 ovarian was over 100 µM each time.

For the compound `CCOP(=O)(Cc1ccc(CP(=O)(OCC)OCC)n1C)OCC`, the TGI with NCI-H522 lung, with CAKI-1 renal, in the experiment with UACC-62 melanoma, with OVCAR-5 ovarian, in the experiment with OVCAR-8 ovarian and with UO-31 renal was over 100 µM each time. For the same compound, the TGI in the experiment on IGROV1 ovarian, with EKVX NSCLC and in the experiment on OVCAR-3 ovarian was over 100 µM in each case.

Turning to `O=C(O)CNc1cc(-c2ccccc2)nc(NCC(=O)O)n1`, the TGI with NCI-H522 lung, in the experiment with CAKI-1 renal, with UACC-62 melanoma, with OVCAR-5 ovarian, with OVCAR-8 ovarian and in the experiment with UO-31 renal was over 100 µM in each case. Moreover, the TGI with IGROV1 ovarian, in the experiment with EKVX NSCLC and with OVCAR-3 ovarian was over 100 µM in each case.

For the compound `CC(C)(C)OC(=O)NCC(=O)OCc1ccccc1`, the TGI in the experiment with UACC-62 melanoma, in the experiment on OVCAR-5 ovarian, with OVCAR-8 ovarian, with UO-31 renal, in the experiment with IGROV1 ovarian and in the experiment with OVCAR-3 ovarian was over 100 µM in each case.

The values above are taken from PubChem BioAssay (NCI).
